Experimental data as given in paper PMC7822874, “Chemoprotective antimalarials identified through quantitative high-throughput screening of Plasmodium blood and liver stage parasites” (Scientific Reports, 2021).
Where “and” joins values, the source holds several entries; their conditions need not be identical. Equal entries are not always repeated. Where two headings read alike, the source gives them in different places.

Experiments:
[1] = system: T1, Plasmodium falciparum Dd2-attB (parental line), asexual blood stages; experiment: microbe, parasite or virus in culture; design: species or system P. falciparum Dd2-attB in human erythrocytes; SYBR Green-I proliferation assay, Dd2-attB parental line, asexual blood stages; details: Plasmodium falciparum, DD2, Erythrocyte, 72 h, read-out: Calculated / Average Log AC50 (M), mean of replicates, 72 h (converted)
T1 construct: Dd2-attB, the isogenic parental line

[2] = system: T1, Plasmodium falciparum Dd2-attB (parental line), asexual blood stages; experiment: microbe, parasite or virus in culture; design: replicate k of 3 (each line is one of three independent assays; the three lines of one compound and parasite line follow each other); details: n = 1; for Individual replicates / Log AC50 (M): 72 h; for AC50: Plasmodium falciparum, DD2, 72 h, read-out: Individual replicates / Log AC50 (converted)
How it was run: (§1)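 Both lines were tested side by side with selected compounds, repeated in three independent assays. Differences between parental and ScDHODH-expressing parasites were then assessed with a two-sided Student's t-test.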

[3] = system: T2, Plasmodium falciparum Dd2-attB-ScDHODH (transgenic line expressing yeast DHODH), asexual blood stages; experiment: organism not typed; design: replicate k of 3 (each line is one of three independent assays; the three lines of one compound and parasite line follow each other)
T2 construct: Dd2-attB-ScDHODH, the transgenic line that expresses yeast DHODH
How it was run: as §1

[4] = 72 h; n = 1; read-out: Individual replicates / Log AC50 (converted)

SMILES	AC50 [1] [M]	Individual replicates / Log AC50 (M) [2]	AC50 [2] [µM]	Individual replicates / Log AC50 (M) ([3]; 72 h; n = 1)	AC50 [3, 4] [µM]	Individual replicates / Log AC50 (M) ([3]; 72 h, n = 1)
Oc1ccc(COCc2ccccc2)c2cccnc12 [MLS000034722-02]	1.13e-05	-4.8986 Log AC50 (M)	8.94	-4.8486 Log AC50 (M)	14.2	
O=C(NC1=CC(=O)c2ccccc2C1=O)c1ccccc1 [MLS002693850-02]	3.56e-06	-5.5986 Log AC50 (M) (2×) and -5.1486 Log AC50 (M)				-5.5486 Log AC50 (M) and -5.0986 Log AC50 (M)
Oc1ccc(CNc2ccccc2F)c2cccnc12 [NCGC00031503-02]	1.22e-05	-4.9986 Log AC50 (M)	17.8		20	-4.7486 Log AC50 (M) and -4.7986 Log AC50 (M)
Cc1ccccc1Nc1c(-c2ccccc2O)nc2sccn12 [NCGC00105919-03]	1.08e-05	-4.8986 Log AC50 (M) and -5.0986 Log AC50 (M)	12.6		8.94	-4.8486 Log AC50 (M) and -5.0486 Log AC50 (M)
Cc1cccc(C)c1Nc1c(-c2ccccn2)nc2ccc(Cl)cn12 [NCGC00106608-03]	1.42e-05	-4.7986 Log AC50 (M) and -4.9486 Log AC50 (M)	15.9	-4.7986 Log AC50 (M)	15.9	
CCc1cccc(C)c1Nc1c(-c2ccc(N(C)C)cc2)nc2ncccn12 [NCGC00107648-03]	1.93e-05		15.9			
Cc1ccc(NC(=O)C(N[S+](=O)([O-])c2ccc3c(c2)CCC(=O)N3)c2ccccc2)cc1C (stereo not shown) [NCGC00110290-01]	1.59e-05		17.8		8.94	
COc1ccc(CNC(=O)c2nc([S+](=O)([O-])Cc3ccccc3)ncc2Cl)cc1 [NCGC00117170-03]	1.31e-05		8.94			
CCOc1ccc(-c2[nH]c3c(C#N)cnn3c2NC2CCCCC2)cc1 [NCGC00119971-02]	1.85e-05		15.9			
CC1Cc2cc([S+](=O)([O-])NCc3ccc(N(C)C)cc3)ccc2N1C(=O)C1CCC1 (stereo not shown) [NCGC00124605-03]	1.47e-05				15.9	
COc1ccc(NCc2cccn2-c2nnc(N3CCC(C)CC3)s2)c(OC)c1 [NCGC00127038-02]	1.26e-05	-4.9986 Log AC50 (M)	17.8		14.2	-4.7486 Log AC50 (M) and -4.7986 Log AC50 (M)
COc1ccc(-n2ncc(C(=O)N3CCc4ccccc4C3)c2C2CCN(C(=O)OC(C)(C)C)CC2)cc1 [NCGC00127123-02]	7.97e-06	-5.2486 Log AC50 (M) and -4.9986 Log AC50 (M)	8.94		14.2	-4.7986 Log AC50 (M) and -4.8486 Log AC50 (M)
CCCCN1CCCc2cc(CN(CCCN3CCOCC3)C(=O)Nc3ccc(OCC)cc3)ccc21 [NCGC00140593-02]	1.36e-05	-4.9986 Log AC50 (M) and -4.7986 Log AC50 (M)	15.9		17.8	-4.8486 Log AC50 (M) and -4.7986 Log AC50 (M)
CN(Cc1ccco1)Cc1ccc(O)c2ncccc12 [NCGC00183374-01]	1.47e-05		8.94		12.6	-4.7986 Log AC50 (M)
Oc1ccc(COC2CCN(Cc3ccccc3)C2)c2cccnc12 (stereo not shown) [NCGC00183382-01]	7.97e-06	-5.2986 Log AC50 (M) and -5.1986 Log AC50 (M) and -4.7986 Log AC50 (M)				
O=C(Nc1ccc(O)c2ncccc12)c1ccccc1F [NCGC00184884-01]	7.38e-06	-5.2486 Log AC50 (M) and -4.9486 Log AC50 (M)	6.33			-4.8486 Log AC50 (M) and -5.0986 Log AC50 (M)
O=[S+]([O-])(Nc1ccc(O)c2ncccc12)c1ccccc1F [NCGC00184887-02]	1e-05	-4.8986 Log AC50 (M) and -5.0486 Log AC50 (M) (2×)				-4.9486 Log AC50 (M) and -4.8486 Log AC50 (M)
NC(=O)c1ccc(O)c2ncccc12 [NCGC00184888-01]	1.59e-05		14.2		20	
O=C(O)c1ccc(O)c2ncc(N3CCOCC3)cc12 [NCGC00241036-03]	1.65e-05	-4.8486 Log AC50 (M)				
O=C(O)c1ccc(O)c2ncc(NC3CCNCC3)cc12 [NCGC00241037-01]	1.72e-05		14.2			
O=C(O)c1ccc(O)c2ncc(N3CCN(CCc4ccncc4)CC3)cc12 [NCGC00247761-01]	1e-05		8.94			
O=C(O)c1ccc(O)c2ncc(N3CCC(N4CCOCC4)CC3)cc12 [NCGC00249380-01]	1.47e-05				17.8	
Cc1cccc(CN2CCN(c3cnc4c(O)ccc(C(=O)O)c4c3)CC2)c1 [NCGC00249381-01]	1.78e-05		15.9			
O=C(O)CCNc1cc(N2CCc3ccccc3CC2)nc(-c2cccnc2)n1 [NCGC00351549-01]	2.08e-05				15.9	
COC(=O)c1ccc(N(CCN2CCC(F)(F)CC2)c2ccc(F)cc2)cn1 [NCGC00390009-01]	1.53e-05					
O=C(O)c1ccnc2cc(C(OCCN3CCC(F)(F)CC3)c3ccccc3Cl)[nH]c12 (stereo not shown) [NCGC00414992-02]	1.53e-05					
COC(=O)c1ccnc(-c2cn(C)cn2)c1NC(=O)Cc1ccc(Cl)cc1 [NCGC00420786-01]	1.42e-05	-5.0486 Log AC50 (M) and -4.7486 Log AC50 (M)	17.8			

SMILES	AC50 [1] [M]	Individual replicates / Log AC50 (M) [2]	AC50 [2] [µM]	Individual replicates / Log AC50 (M) ([3]; 72 h; n = 1)	AC50 [3, 4] [µM]	Individual replicates / Log AC50 (M) ([3]; 72 h, n = 1)
C=CC(=O)N1CCCN(c2cc(NCCC(=O)O)nc(-c3ccccn3)n2)CC1 [NCGC00420854-01]	2.16e-05					
COC(=O)CCNc1cc(N2CCCN(C(=O)C(C#N)=C(C)C)CC2)nc(-c2ccccn2)n1 [NCGC00420856-01]	1.42e-05					
C=C[S+](=O)([O-])N1CCCN(c2cc(NCCC(=O)O)nc(-c3ccccn3)n2)CC1 [NCGC00420874-01]	2.25e-05					
CC(C)=C(C#N)C(=O)N1CCCN(c2cc(NCCC(=O)O)nc(-c3ccccn3)n2)CC1 [NCGC00420877-01]	1.59e-08					
CN1CCCC1CCOC(c1cc2nccc(C(=O)O)c2[nH]1)c1ccccc1Cl (stereo not shown) [NCGC00421826-01]	6.58e-06					
O=C(O)c1ccnc2cc(C(OCCCN3CCCC3)c3ccccc3Cl)[nH]c12 (stereo not shown) [NCGC00421827-01]	4.48e-06					
Cn1ccnc1CCOC(c1cc2nccc(C(=O)O)c2[nH]1)c1ccccc1Cl (stereo not shown) [NCGC00421835-01]	1.85e-05		15.9			
CCOC(=O)c1cnn(-c2cc(C(N)=O)ccn2)c1-c1ccc(OC)cc1 [NCGC00421836-01]	6.33e-06					
CCOC(=O)c1ccnc(-n2ncc(C(=O)OCC)c2-c2ccc(OC)cc2)c1 [NCGC00421879-01]	1.22e-05					
O=C(NC1CCN(c2cc(-c3ccc(Cl)cc3)n[nH]2)C1)c1ccccc1 (stereo not shown) [NCGC00437928-03]	1.85e-05				12.6	
CCN(Cc1noc(CC(C)C)n1)C(=O)c1cnc(-c2ccccn2)nc1O [NCGC00438951-02]	1.85e-05					
CN1CCCCC1CCOC(c1cc2nccc(C(=O)O)c2[nH]1)c1ccccc1Cl (stereo not shown) [NCGC00479006-01]	1.93e-05					
O=C(O)c1ccnc2cc(C(OCCN3CCCCC3)c3ccccc3Cl)[nH]c12 (stereo not shown) [NCGC00479257-01]	1.89e-05					
O=C(O)c1ccnc2cc(C(OCCCC3CCCCN3)c3ccccc3Cl)[nH]c12 (stereo not shown) [NCGC00479271-01]	8.94e-06					
CC(OCCN1CCCCC1)c1cnn(-c2cc(C(=O)O)ccn2)c1-c1cccc(-c2ccccc2)c1 (stereo not shown) [NCGC00481287-01]	1.36e-05		15.9			
CN1CCCC1CCOC(c1cccc(-c2ccccc2)c1)c1cc2nccc(C(=O)O)c2s1 (stereo not shown) [NCGC00481397-01]	1.42e-05					
O=C(O)c1ccnc(-n2ncc(C(OCCN3CCCCC3)c3ccccc3)c2-c2ccccc2Cl)c1 (stereo not shown) [NCGC00483104-01]	1.36e-05					
O=C(O)c1ccnc(-n2ncc(C(OCCN3CCCCC3)c3ccccc3Cl)c2-c2ccccc2Cl)c1 (stereo not shown) [NCGC00487469-01]	1.85e-05					
O=C(O)c1ccnc(-n2ncc(C(OCCN3CCCCC3)c3ccccc3)c2-c2ccccc2)c1 (stereo not shown) [NCGC00488202-01]	2.12e-05					
CC(C)(C)c1cc(N2CCC(NC(=O)c3ccccc3)C2)n[nH]1 (stereo not shown) [NCGC00488845-01]	2.25e-05					
O=C(N[C@H]1CCN(c2cc(-c3ccc(Cl)cc3)[nH]n2)C1)c1ccccc1 [NCGC00489097-01]	1.19e-05		6.33			
O=C(N[C@H]1CC(=O)N(c2cc(-c3ccccc3)[nH]n2)C1=O)c1ccccc1 [NCGC00489852-01]	7.1e-10					
O=C(NC1CCN(C(=O)c2cc(-c3ccccc3)n[nH]2)C1)c1ccccc1 (stereo not shown) [NCGC00492307-01]	1.59e-05				14.2	
Cc1nn2c(c1-c1ccnn1C(C)C)N(CC1CC1)CCC2 [NCGC00499721-01]	1.59e-05					
Cc1cccc(CN2CCCn3nc(C)c(-c4ccnn4C(C)C)c32)n1 [NCGC00499722-01]	1.65e-07					
Cc1nn2c(c1-c1ccnn1C(C)C)N(Cc1ccccc1)CCC2 [NCGC00500003-01]	1.31e-05		8.94			
CC(C)c1c(-c2cnn(C(C)(C)C)c2)n2ncc(C#N)c2[nH]c1=O [NCGC00500019-01]	1.53e-05					
